These results are taken from the NIST ThermoML archive (doi:10.1016/j.jct.2004.09.002).

The conditions of series [1]: 293.15 K; 101.33 kPa; Liquid; Vibrating tube method.
Series [2] in a line: refractive index (Na D-line) (dimensionless). The conditions noted are these: 293.15 K; 101.33 kPa; Liquid; Standard Abbe refractometry.
Series [3] can be described thus: Boiling temperature at pressure P. The conditions noted are these: 101.33 kPa; Liquid; Fischer boiling point apparatus.

Broadly, the mass density is the mass of a sample divided by its volume. The term refractive index denotes a measure of how strongly the sample bends light.

Numbers after ± are expanded uncertainties.

Take `CCCC(=O)O` [butanoic acid]: in series [1], the mass density is listed as 957.6 ± 0.5 kg/m3. In addition, the refractive index in series [2] was 1.3982 ± 0.0012.

As for `CC(=O)OC1CCCCC1` [cyclohexyl ethanoate], in series [1], the mass density is 970.3 ± 1 kg/m3. For the same molecule, in series [3], the “Boiling temperature at pressure P” value was determined as 177.30 ± 0.2 °C. In addition, the refractive index in series [2] stood at 1.4434 ± 0.0013.

Turning to `O` [water], the “Boiling temperature at pressure P” value in series [3] is 100.1 ± 0.2 °C. In addition, the refractive index in series [2] amounted to 1.3324 ± 0.0012.
